“Also recorded” adds a separate entry of the source.
Legend:
[1] = tested on: Gloeophyllum trabeum strain GT599; assay: Fungal growth on MEA plates with furanone; format: cell-based; parameters: key to growth on plate, GT599: −: No growth was observed; +: normal growth was seen; conditions: for growth on plate, GT599: 60 μg/mL, 7 days at 30° C.; for growth inhibition test, inhibitory concentration, GT599: tested at 1, 5, 30, 60 μg/mL, 7 days
Description: This Example examines the effect of brominated furanones on the growth of fungi associated with damage to building material. Six fungal strains were the subject of these experiments; Gloeophyllum trabeum (strains GT598 and GT599), Chaetomium globosum (wildtype strain and CG572), and Trametes versicolor (strains TV7B2-59 and TV57MAD277). The species were developed on 2% Malt-Extract Agar (MEA) plates and stored inverted at 4° C. The stocks were refreshed by streaking new plates every two months.
The brominated and non-brominated furanones were added to MAE agar plates at different concentrations. The brominated furanones were dissolved in either ethanol (“EtOH”) or methanol (“MeOH”) as stock solutions, as shown in Table 5. The non-brominated furanones were purchased from Sigma (St. Louis, Mo.). The furanone stocks were stored at 4° C.
MAE agar plates containing the same amounts of ethanol/methanol were also prepared as negative controls to eliminate any solvent effects. The plates were prepared using either 90 mm or 60 mm petri dishes and were stored inverted at 4° C. until use.
Different concentrations of furanones were studied to compare their antifungal activities. The plates were inoculated with the six fungal strains using a platinum loop and were incubated upside down at 30° C. for 7 days to monitor the growth. The initial screening was performed using a single 60 μg/mL furanone concentration.

[2] = tested on: P. aeruginosa strain PAO1; assay: Microplate based planktonic growth assay of P. aeruginosa; format: cell-based, Pseudomonas aeruginosa; conditions: for reduction of specific growth rate compared to furanone-free control: planktonic growth
Description: The antimicrobial activities of furanones on the planktonic growth of P. aeruginosa strain PAO1 was examined using a microplate based growth assay. An overnight culture of the strain grown in LB medium at 30° C. was used to inoculate M63 minimal medium supplemented with furanones at 0, 30 or 60 μg/mL to an optical density at 600 nm (OD600) of 0.05 in 96-well plates. The plates were then incubated at 30° C. with shaking at 200 rpm. The reading of OD600 was measured every 60 minutes for six hours using a microplate reader (ELx808, BioTek Instruments). Six replicates were tested for every sample. The synthesis of the brominated furanones, the structures of which are shown in FIGS. 1A and 1B, was according to Example 1.

[3] = tested on: extracellular AI-2 activities of E. coli; assay: AI-2 bioluminescence assay (V. harveyi BB170 reporter, E. coli supernatants); format: cell-based; conditions: 60 μg/mL, E. coli culture 8 hours, supernatant on V. harveyi BB170
Description: To explore if brominated furanones have an interaction with quorum-sensing based on AI-2, a bioluminescence assay was conducted. Specifically, to examine whether the novel BFs have any inhibitory effects on universal QS signal AI-2, the bioluminescence of the reporter Vibrio harveyi (“V. harveyi”) strain BB170 was used as an indicator of AI-2 activities.
The E. coli strains RP437 [thr-1(Am) leuB6 his-4 metF159(Am) eda-50 rpsL1356 thi-1 ara-14 mtl-1 xyl-5 tonA31 tsx-78 lacY1 F-] and quorum-sensing mutant BW25113 ΔLuxS [ΔluxS::kan^r lacI^q rrnB3 ΔlacZ4787 hsdR514 Δ(araBAD)567 Δ (rhaBAD)568 rph-1] were routinely grown at 37° C. with shaking at 200 rpm in LB medium containing 10 g/L NaCl, 5 g/L yeast extract and 10 g/L tryptone. […]
The reporter strain V. harveyi BB170 was grown in AB medium at 30° C. for 16 hours. […] The subcultures were incubated at 30° C. and the bioluminescence was measured every hour as an indicator of AI-2 activity using a luminometer (Model 20/20m Turner BioSystems, Inc., Sunnyvale, Calif.). The colony-forming units (CFUs) of V. harveyi strain BB170 were counted after spreading the cell cultures on LM agar plates containing 10 g/L tryptone, 5 g/L yeast extract, 20 g/L NaCl and 15 g/L agar plates and incubating at 30° C. for 24 hours.
It was previously known that the V. harveyi BB170 strain produces luminescence in response to AI-2 but not in response to homoserine lactones (AHLs) as a result of a mutation in the AHL sensor gene. At low cell densities, the basal level of AI-2 will not trigger significant production of luminescence in V. harveyi BB170; however, at high cell densities, the extracellular AI-2 concentration will reach a certain threshold and induce the bioluminescence of V. harveyi. […]

E. coli = E. coli growth inhibition (results not shown); format: cell-based; conditions: at / up to 60 μg/mL

| SMILES | growth on plate, GT599 [1] | growth inhibition test, inhibitory concentration, GT599 [1] [µg/mL] | inhibitory effect on planktonic growth ([2]; 30 μg/mL) | reduction of specific growth rate compared to furanone-free control ([2]; 60 μg/mL) [%] | reduction of extracellular AI-2 activity [3] [%] | growth inhibition of E. coli (E. coli) | inhibitory effect on planktonic growth ([2]; 30 and 60 μg/mL (up to 60 μg/mL)) | reduction of specific growth rate compared to furanone-free control ([2]; 30 μg/mL) [%] |
| --- | --- | --- | --- | --- | --- | --- | --- | --- |
| CCCCC1=C(Br)/C(=C/Br)OC1=O [BF1, 4-bromo-5Z-(bromomethylene)-3-butylfuran-2-one] | − | 30 |  |  |  |  |  |  |
| O=C1OC(=C(Br)Br)C=C1C(Br)Br [BF10, 3-(dibromomethyl)-5-(dibromomethylene)furan-2-one] | − | 30 | did not exhibit significant inhibitory effects | 10 | 31.0±5.1 |  |  |  |
| CC1=C(Br)/C(=C/Br)OC1=O [BF8, 4-bromo-5Z-(bromomethylene)-3-methylfuran-2-one] | − | 5 | did not exhibit significant inhibitory effects |  | 72.9±1.0 | did not inhibit | did not inhibit; also recorded: no apparent effect |  |
| CC1=CC(=C(Br)Br)OC1=O [BF9, 5-(dibromomethylene)-3-methylfuran-2-one] | − | 60 |  | 42.7 | 42.2±0.3 | does not inhibit |  | 29.3 |

From patent US8530680B2, “System and method for controlling growth of microorganisms with brominated furanones” (Syracuse University, priority 2008, dated 2013)
